According to US10265422B2, “Ethylenediaminetetraacetic acid bis(amide) derivatives and their respective complexes with Mn(II) ion for use as MRI contrast agent” (BRACCO IMAGING S.P.A., priority 2015, dated 2019):
Where two headings read alike, the source gives them in different places.

What was measured:
[1] = Relaxivity r1 in water at 20 MHz; type: physicochemical; conditions: absence of HSA
[2] = molecular target: human serum albumin (HSA) (Homo sapiens, UniProt P02768); conditions: presence of HSA, 20 MHz
[3] = Decomplexation of Mn(II) complexes: transmetallation with Cu2+ ions followed by spectrophotometry; type: physicochemical; conditions: pH 7.4, 25 °C, read-out: t½ (half-life of decomplexation) (converted)
Method: These studies were performed by following the transmetallation reaction between the Mn^2+ based complexes and Cu^2+ ions by spectrophotometry as reported in […]. Inorganic Chemistry (2012), 51, 10065-7.

[4] = calculated using rate constants

Sequence of human serum albumin (HSA) (P02768 25-609): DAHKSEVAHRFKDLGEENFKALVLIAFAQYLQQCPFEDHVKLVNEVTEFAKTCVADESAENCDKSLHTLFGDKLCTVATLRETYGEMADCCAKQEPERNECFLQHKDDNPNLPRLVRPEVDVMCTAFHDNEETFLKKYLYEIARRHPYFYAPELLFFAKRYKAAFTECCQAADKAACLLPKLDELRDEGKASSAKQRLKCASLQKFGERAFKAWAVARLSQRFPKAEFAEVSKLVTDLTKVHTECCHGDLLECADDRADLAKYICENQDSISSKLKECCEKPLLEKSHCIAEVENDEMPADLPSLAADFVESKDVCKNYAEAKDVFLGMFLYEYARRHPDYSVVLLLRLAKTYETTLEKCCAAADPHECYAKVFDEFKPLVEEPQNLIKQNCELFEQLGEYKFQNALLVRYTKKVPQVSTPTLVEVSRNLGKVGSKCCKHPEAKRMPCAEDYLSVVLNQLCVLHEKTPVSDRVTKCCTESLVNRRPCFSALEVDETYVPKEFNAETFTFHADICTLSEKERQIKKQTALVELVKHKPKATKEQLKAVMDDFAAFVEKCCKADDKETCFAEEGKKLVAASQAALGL

Row | r1 (relaxivity) ([1]; 25 °C) [mM⁻¹ s⁻¹] | r1 (relaxivity) ([1]; 37 °C) [mM⁻¹ s⁻¹] | r1 HSA (relaxivity) ([2]; 25 °C) [mM⁻¹ s⁻¹] | r1 HSA (relaxivity) ([2]; 37 °C) [mM⁻¹ s⁻¹] | half-life [3, 4] [h] | half-life ([3]; footnote: half-life in seconds) [h] | SMILES
1 | 4.97 | 3.75 | 5.98 | 4.65 | – | – | O=C(O)CN(CC(=O)N1CCC(C(=O)O)CC1)C1CCCCC1N(CC(=O)O)CC(=O)N1CCC(C(=O)O)CC1 (stereo not drawn)
2 | 5.56 | 4.17 | 19.44 | 18.16 | – | – | O=C(O)CN(CC(=O)N1CCC(Cc2ccccc2)CC1)C1CCCCC1N(CC(=O)O)CC(=O)N1CCC(Cc2ccccc2)CC1 (stereo not drawn)
3 | 3.77 | 2.95 | 7.64 | 6.57 | – | – | O=C(O)CN(CC(=O)N1CCOCC1)C1CCCCC1N(CC(=O)O)CC(=O)N1CCOCC1 (stereo not drawn)
4 | 4.43 | 3.49 | 5.63 | 4.56 | – | – | O=C(O)CN(CC(=O)N1CCCCC1)C1CCCCC1N(CC(=O)O)CC(=O)N1CCCCC1 (stereo not drawn) [drawing 20]
5 | 5.17 | 3.94 | 6.01 | 4.44 | – | – | O=C(O)CN(CC(=O)NC(CO)CO)C1CCCCC1N(CC(=O)O)CC(=O)NC(CO)CO (stereo not drawn) [drawing 24]
6 | 4.37 | 3.43 | 13.10 | 9.94 | – | – | CN(C)C(=O)CN(CC(=O)O)C1CCCCC1N(CC(=O)O)CC(=O)N(C)C (stereo not drawn) [drawing 25]
7 | 4.64 | 3.62 | 6.55 | 5.37 | – | – | CCCCNC(=O)CN(CC(=O)O)C1CCCCC1N(CC(=O)O)CC(=O)NCCCC (stereo not drawn) [drawing 26]
8 | 4.60 | 3.50 | 9.09 | 6.78 | – | – | O=C(O)CN(CC(=O)N1CCCCC1)c1ccccc1N(CC(=O)O)CC(=O)N1CCCCC1 [drawing 27]
9 | 5.29 | 4.04 | 28.20 | 23.84 | – | – | O=C(O)CN(CC(=O)N1CCC(Cc2ccccc2)CC1)c1ccccc1N(CC(=O)O)CC(=O)N1CCC(Cc2ccccc2)CC1 [drawing 28]
10 | – | – | – | – | 285 | – | O=C(O)CN(CC(=O)N1CCCCC1)C1CCCCC1N(CC(=O)O)CC(=O)N1CCCCC1 (stereo not drawn) [drawing 29]
11 | – | – | – | – | 166 | – | O=C(O)CN(CC(=O)NC(CO)CO)C1CCCCC1N(CC(=O)O)CC(=O)NC(CO)CO (stereo not drawn) [drawing 37]
12 | – | – | – | – | 131 | – | CN(C)C(=O)CN(CC(=O)O)C1CCCCC1N(CC(=O)O)CC(=O)N(C)C (stereo not drawn) [drawing 38]
13 | – | – | – | – | 57 | – | CCCCNC(=O)CN(CC(=O)O)C1CCCCC1N(CC(=O)O)CC(=O)NCCCC (stereo not drawn) [drawing 39]
14 | – | – | – | – | – | 0.0231 | O=C(O)CN(CC(=O)N1CCCCC1)c1ccccc1N(CC(=O)O)CC(=O)N1CCCCC1 [drawing 40]
15 | – | – | – | – | – | 0.0167 | O=C(O)CN(CC(=O)N1CCC(Cc2ccccc2)CC1)c1ccccc1N(CC(=O)O)CC(=O)N1CCC(Cc2ccccc2)CC1 [drawing 41]
